Reference: patent publication US20250313572A1, “MACROCYCLIC MCL-1 INHIBITORS AND METHODS OF USE” (AbbVie Inc., priority 2017, published 2025)
Where two headings read alike, the source gives them in different places.

Key:
[1] = system: NCI-H929 human multiple myeloma tumor cell line; assay: NCI-H929 cell viability assay (CellTiter-Glo, 24 hours); format: cell-based; conditions: Homo sapiens
[2] = system: AMO-1 human multiple myeloma tumor cell line; assay: AMO-1 cell viability assay (CellTiter-Glo, 24 hours); format: cell-based; conditions: Homo sapiens
GST-MCL-1 = GST-MCL-1 (Homo sapiens, UniProt Q07820); assay: TR-FRET MCL-1 binding assay (competition with probe F-Bak)
In short: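 Displacement of F-Bak from GST-MCL-1 is detected by time-resolved FRET with a Tb-labelled anti-GST antibody, with excitation 340/35 nm and emission 520/525 and 495/510 nm, after 2 hours at room temperature. Compounds were titrated in 11 three-fold steps starting at 25 μM final, in buffer alone or in 10% HS.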

[3] = NCI-H929, 24 h, read-out: H929 Viability IC50 (μM, 10% FBS), 10% FBS, 24 hours of compound treatment
[4] = AMO1, 24 h, read-out: AMO-1 Viability IC50 (μM, 10% FBS), 10% FBS, 24 hours of compound treatment
[5] = MCL-1 Binding Ki (nM, 10% HS), in the presence of 10% HS (human serum)
[6] = without HS, read-out: MCL-1 Binding Ki

Sequence of GST-MCL-1 (Q07820 whole entry): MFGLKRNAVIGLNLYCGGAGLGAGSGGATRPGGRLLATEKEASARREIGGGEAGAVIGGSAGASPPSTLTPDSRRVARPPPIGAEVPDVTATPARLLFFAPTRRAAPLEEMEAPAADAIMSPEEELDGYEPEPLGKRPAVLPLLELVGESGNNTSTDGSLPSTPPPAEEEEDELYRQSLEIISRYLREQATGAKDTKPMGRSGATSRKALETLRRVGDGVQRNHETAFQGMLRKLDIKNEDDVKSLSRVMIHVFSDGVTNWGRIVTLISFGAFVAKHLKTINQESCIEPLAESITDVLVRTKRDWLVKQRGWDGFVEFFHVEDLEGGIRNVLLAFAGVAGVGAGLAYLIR

SMILES | IC50 [1, 3] [µM] | IC50 [2, 4] [µM] | Ki (GST-MCL-1; [5]) [nM] | Ki (GST-MCL-1; [6]) [nM] | IC50 ([1]; NCI-H929, read-out: H929 Viability IC50 (μM), 10% FBS, 24 hours of compound treatment) [µM] | IC50 ([2]; AMO1, read-out: AMO-1 Viability IC50 (μM), 10% FBS, 24 hours of compound treatment) [µM]
Cc1c(Cl)c2c(Cl)c(C)c1-c1c(-c3ccc(F)cc3)sc3ncnc(c13)O[C@@H](C(=O)O)Cc1cc(ccc1OCc1ccnc(-c3cccc(CN4CCOCC4)c3)n1)OC[C@@H](CN1CCN(C)CC1)O2 [Example 147, (7R,16R)-19,23-dichloro-1-(4-fluorophenyl)-20,22-dimethyl-16-[(4-methylpiperazin-1-yl)methyl]-10-[(2-{3-[(morpholin-4-yl)methyl]phenyl}pyrimidin-4-yl)methoxy]-7,8,15,16-tetrahydro-18,21-etheno-13,9-(metheno)-6,14,17-trioxa-2-thia-3,5-diazacyclononadeca[1,2,3-cd]indene-7-carboxylic Acid] | 0.000162 | 0.000204 | 0.098 | 0.002 |  | 
Cc1c(Cl)c2c(Cl)c(C)c1-c1c(-c3ccc(F)cc3)sc3ncnc(c13)O[C@@H](C(=O)O)Cc1cc(ccc1OCc1ccnc(-c3ccc(CN4CCOCC4)cc3)n1)OC[C@@H](CN1CCN(C)CC1)O2 [Example 148, (7R,16R)-19,23-dichloro-1-(4-fluorophenyl)-20,22-dimethyl-16-[(4-methylpiperazin-1-yl)methyl]-10-[(2-{4-[(morpholin-4-yl)methyl]phenyl}pyrimidin-4-yl)methoxy]-7,8,15,16-tetrahydro-18,21-etheno-13,9-(metheno)-6,14,17-trioxa-2-thia-3,5-diazacyclononadeca[1,2,3-cd]indene-7-carboxylic Acid] | 0.000736 | 0.00018 | 0.346 | 0.034 |  | 
Cc1c(Cl)c2c(Cl)c(C)c1-c1c(-c3ccc(F)cc3)sc3ncnc(c13)O[C@@H](C(=O)O)Cc1cc(ccc1OCc1ccnc(-c3cccc(S(=O)(=O)N4CCOCC4)c3)n1)OC[C@@H](CN1CCN(C)CC1)O2 [Example 149, (7R,16R)-19,23-dichloro-1-(4-fluorophenyl)-20,22-dimethyl-16-[(4-methylpiperazin-1-yl)methyl]-10-({2-[3-(morpholine-4-sulfonyl)phenyl]pyrimidin-4-yl}methoxy)-7,8,15,16-tetrahydro-18,21-etheno-13,9-(metheno)-6,14,17-trioxa-2-thia-3,5-diazacyclononadeca[1,2,3-cd]indene-7-carboxylic Acid] | 0.0014 | 0.000363 | 0.14 | 0.006 |  | 
Cc1c(Cl)c2c(Cl)c(C)c1-c1c(-c3ccc(F)cc3)sc3ncnc(c13)O[C@@H](C(=O)O)Cc1cc(ccc1OCc1ccnc([C@@H]3CN4CCC[C@H]4CO3)n1)OC[C@@H](CN1CCN(C)CC1)O2 [Example 150, (7R,16R)-19,23-dichloro-1-(4-fluorophenyl)-10-({2-[(3S,8aS)-hexahydro-1H-pyrrolo[2,1-c][1,4]oxazin-3-yl]pyrimidin-4-yl}methoxy)-20,22-dimethyl-16-[(4-methylpiperazin-1-yl)methyl]-7,8,15,16-tetrahydro-18,21-etheno-13,9-(metheno)-6,14,17-trioxa-2-thia-3,5-diazacyclononadeca[1,2,3-cd]indene-7-carboxylic Acid] | 0.00253 | 0.00151 | 0.267 | 0.043 |  | 
Cc1c(Cl)c2c(Cl)c(C)c1-c1c(-c3ccc(F)cc3)sc3ncnc(c13)O[C@@H](C(=O)O)Cc1cc(ccc1OCc1ccnc(-c3ccc(OC(=O)N4CCOCC4)cc3)n1)OC[C@@H](CN1CCN(C)CC1)O2 [Example 151, (7R,16R)-19,23-dichloro-1-(4-fluorophenyl)-20,22-dimethyl-16-[(4-methylpiperazin-1-yl)methyl]-10-[(2-{4-[(morpholine-4-carbonyl)oxy]phenyl}pyrimidin-4-yl)methoxy]-7,8,15,16-tetrahydro-18,21-etheno-9,13-(metheno)-6,14,17-trioxa-2-thia-3,5-diazacyclononadeca[1,2,3-cd]indene-7-carboxylic Acid] |  |  | 0.325 | 0.01 | 0.000735 | 0.000303
COCCOCCOCCOCc1ccc(-c2nccc(COc3ccc4cc3C[C@H](C(=O)O)Oc3ncnc5sc(-c6ccc(F)cc6)c(c35)-c3c(C)c(Cl)c(c(Cl)c3C)O[C@H](CN3CCN(C)CC3)CO4)n2)cc1COCCOCCOCCOC [Example 152, (7R,16R)-10-({2-[3,4-bis(2,5,8,11-tetraoxadodecan-1-yl)phenyl]pyrimidin-4-yl}methoxy)-19,23-dichloro-1-(4-fluorophenyl)-20,22-dimethyl-16-[(4-methylpiperazin-1-yl)methyl]-7,8,15,16-tetrahydro-18,21-etheno-13,9-(metheno)-6,14,17-trioxa-2-thia-3,5-diazacyclononadeca[1,2,3-cd]indene-7-carboxylic Acid] | 0.00593 | 0.00732 | 0.041 | 0.011 |  | 
COCCOCCOCCOCc1ccc(-c2nccc(COc3ccc4cc3C[C@H](C(=O)O)Oc3ncnc5sc(-c6ccc(F)cc6)c(c35)-c3c(C)c(Cl)c(c(Cl)c3C)O[C@H](CN3CCN(C)CC3)CO4)n2)c(OCCOCCOCCOC)c1 [Example 153, (7R,16R)-19,23-dichloro-1-(4-fluorophenyl)-10-({2-[2-{2-[2-(2-methoxyethoxy)ethoxy]ethoxy}-4-(2,5,8,11-tetraoxadodecan-1-yl)phenyl]pyrimidin-4-yl}methoxy)-20,22-dimethyl-16-[(4-methylpiperazin-1-yl)methyl]-7,8,15,16-tetrahydro-18,21-etheno-13,9-(metheno)-6,14,17-trioxa-2-thia-3,5-diazacyclononadeca[1,2,3-cd]indene-7-carboxylic Acid] | 0.00688 | 0.00728 | 0.023 | 0.001 |  | 
CO[C@@H]1CO[C@H]2[C@@H]1OC[C@H]2OCCOc1ccc(-c2nccc(COc3ccc4cc3C[C@H](C(=O)O)Oc3ncnc5sc(-c6ccc(F)cc6)c(c35)-c3c(C)c(Cl)c(c(Cl)c3C)O[C@H](CN3CCN(C)CC3)CO4)n2)cc1 [Example 154, (7R,16R)-19,23-dichloro-1-(4-fluorophenyl)-10-({2-[4-(2-{[(3R,3aR,6R,6aR)-6-methoxyhexahydrofuro[3,2-b]furan-3-yl]oxy}ethoxy)phenyl]pyrimidin-4-yl}methoxy)-20,22-dimethyl-16-[(4-methylpiperazin-1-yl)methyl]-7,8,15,16-tetrahydro-18,21-etheno-13,9-(metheno)-6,14,17-trioxa-2-thia-3,5-diazacyclononadeca[1,2,3-cd]indene-7-carboxylic Acid] | 0.000643 | 0.000698 | 0.191 | 0.018 |  | 
COCCOCCOCCOCc1cc(OC[C@H]2COCCO2)ccc1-c1nccc(COc2ccc3cc2C[C@H](C(=O)O)Oc2ncnc4sc(-c5ccc(F)cc5)c(c24)-c2c(C)c(Cl)c(c(Cl)c2C)O[C@H](CN2CCN(C)CC2)CO3)n1 [Example 155, (7R,16R)-19,23-dichloro-10-({2-[4-{[(2R)-1,4-dioxan-2-yl]methoxy}-2-(2,5,8,11-tetraoxadodecan-1-yl)phenyl]pyrimidin-4-yl}methoxy)-1-(4-fluorophenyl)-20,22-dimethyl-16-[(4-methylpiperazin-1-yl)methyl]-7,8,15,16-tetrahydro-18,21-etheno-13,9-(metheno)-6,14,17-trioxa-2-thia-3,5-diazacyclononadeca[1,2,3-cd]indene-7-carboxylic Acid] | 0.000187 | 0.000188 | 0.03 | 0.001 |  | 
COCCOCCOCCOc1cccc(COc2ccc3cc2C[C@H](C(=O)O)Oc2ncnc4sc(-c5ccc(F)cc5)c(c24)-c2c(C)c(Cl)c(c(Cl)c2C)O[C@H](CN2CCN(C)CC2)CO3)c1 [Example 156, (7R,16R)-19,23-dichloro-1-(4-fluorophenyl)-10-[(3-{2-[2-(2-methoxyethoxy)ethoxy]ethoxy}phenyl)methoxy]-20,22-dimethyl-16-[(4-methylpiperazin-1-yl)methyl]-7,8,15,16-tetrahydro-18,21-etheno-13,9-(metheno)-6,14,17-trioxa-2-thia-3,5-diazacyclononadeca[1,2,3-cd]indene-7-carboxylic Acid] | 0.0111 | 0.00453 | 23.6 | 1.88 |  | 
Cc1c(Cl)c2c(Cl)c(C)c1-c1c(-c3ccc(F)cc3)sc3ncnc(c13)O[C@@H](C(=O)O)Cc1cc(ccc1OCc1ccnc(-c3ccc(OC[C@@H]4CN(C)CCO4)cc3)n1)OC[C@@H](CN1CCN(C)CC1)O2 [Example 157, (7R,16R)-19,23-dichloro-1-(4-fluorophenyl)-20,22-dimethyl-10-{[2-(4-{[(2S)-4-methylmorpholin-2-yl]methoxy}phenyl)pyrimidin-4-yl]methoxy}-16-[(4-methylpiperazin-1-yl)methyl]-7,8,15,16-tetrahydro-18,21-etheno-9,13-(metheno)-6,14,17-trioxa-2-thia-3,5-diazacyclononadeca[1,2,3-cd]indene-7-carboxylic Acid] | 0.000821 | 0.000233 | 0.168 | 0.008 |  | 
